In a melting point compilation (Tetko et al.; mined from patent text by program, amines drawn as free bases though some values may be those of a salt):

Which melting point does the source give for `C[C@@H]1N=C(c2ccccc2)c2cc(N)ccc2N(C)C1=O` here?
The melting point was 219 to 221 °C.

Which melting point does the source give for `Nc1ccc(Cn2cc(C(F)(F)F)ccc2=O)cc1` here?
Its melting point is 97 to 98 °C.

For `N=C(NC=Cc1ccc(N)cc1)c1ccccc1`, which melting point is on record?
The melting point was 166 to 168 °C.

With `O=C(NCCCCN1CCC(c2c[nH]c3ccccc23)CC1)c1ccc(-c2ccc(C(F)(F)F)cc2)cc1CO` as the compound, how does the melting point read?
The melting point was 255 °C.

With `CN(Cc1ccc2[nH]cc(CCN3C(=O)c4ccccc4C3=O)c2c1)S(=O)(=O)C(F)(F)F` as the compound, how does the melting point read?
Its melting point is 131 to 133 °C.

For `O=S(=O)(F)c1ccc2ccccc2c1`, which melting point is on record?
Its melting point is 85 to 86 °C.

Which melting point does the source give for `O=C(Nc1nccs1)c1cnc2c(C(F)(F)F)cccc2c1O` here?
Its melting point is 325 °C.

Which melting point does the source give for `N#Cc1c(Cl)c(Cl)n(C#N)c1-c1ccc(Cl)c(Cl)c1` here?
The melting point was 250 to 252 °C.

For `CCOC(=O)C1=NN=C(c2ccc(OC)c(OC)c2)c2cc(OC)c(OC)cc2C1CC` (configuration not stated), which melting point is on record?
Its melting point is 178 to 180 °C.

For `Cc1nc(-c2ccccc2)cc(-c2cccc([N+](=O)[O-])c2)c1CO`, which melting point is on record?
The melting point was 209 to 214 °C.

For `CCOC(=O)C1N=CSC12CCN(Cc1ccccc1)CC2` (configuration not stated), which melting point is on record?
The melting point was 67 to 68 °C.

With `CC(Cc1ccc(C(C)(C)C)cc1)C[N+]1([O-])CC(C)OC(C)C1` (configuration not stated) as the compound, how does the melting point read?
Its melting point is 115 to 118 °C.

Which melting point does the source give for `CSc1nc(N2CCc3ccccc3CC2)c(C#N)c(=O)[nH]1` here?
Its melting point is over 250 °C.

With `CCCCCCCC(=O)Oc1nc2c(N)ncnc2n1Cc1ccccc1` as the compound, how does the melting point read?
Its melting point is 248 to 250 °C.

For `NCCCCCCCCCCCCCCCCCC(=O)O`, which melting point is on record?
Its melting point is 162 to 163 °C.

For `Oc1ccc2c(ccc3ccccc32)c1-c1c(O)ccc2c1ccc1ccccc12`, which melting point is on record?
The melting point was 244 to 245 °C.

With `FC(F)(F)C1(c2cc(Cl)cc(Cl)c2)CC(c2ccc(-n3cccc3)cc2)=NO1` (configuration not stated) as the compound, how does the melting point read?
The melting point was 206 to 208 °C.

For `COC(=O)c1ccc2cc(OC(=S)N(C)C)ccc2c1`, which melting point is on record?
Its melting point is 144 to 147 °C.

For `O=C(O)C(O)Cn1nnnc1S` (configuration not stated), which melting point is on record?
The melting point was 143 to 146 °C.

For `CCN(C(=O)Nc1ccccc1CCc1cc(C(C)(C)C)c(O)c(C(C)(C)C)c1)C1CCN(Cc2ccccc2)CC1`, which melting point is on record?
Its melting point is 149 to 151 °C.

With `NC(=O)c1ccccc1N1CCc2cc(Cl)cc([N+](=O)[O-])c21` as the compound, how does the melting point read?
The melting point was 225 to 226 °C.

With `C=CCOCC(CC)(COCC=C)C(NC(=O)c1ccc(Cl)cc1)NC(=N[N+](=O)[O-])Nc1cccnc1` (configuration not stated) as the compound, how does the melting point read?
Its melting point is 175 to 180 °C.

Which melting point does the source give for `Cc1c(NC(=O)c2ccccc2[N+](=O)[O-])cccc1C(F)(F)F` here?
Its melting point is 188 to 189 °C.

Which melting point does the source give for `CCOC(=O)Cc1cnc(Nc2n[nH]c3ccc(-c4ncccc4Cl)cc23)s1` here?
Its melting point is 259 to 261 °C.

For `NC(=O)COC(=O)c1c(F)cccc1F`, which melting point is on record?
The melting point was 108 to 110 °C.

With `Cc1nc(Br)sc1NC(=O)OC(C)(C)C` as the compound, how does the melting point read?
Its melting point is 114 to 116 °C.

Which melting point does the source give for `Cc1ccc(Nc2c(N3CCCC3)cc(C(=O)O)cc2S(N)(=O)=O)cc1` here?
Its melting point is 188 to 191 °C.

Which melting point does the source give for `CNC(=O)N(c1ccccc1)c1cccc2ccccc12` here?
Its melting point is 146 °C.

For `CC1(c2ccc(O)c(O)c2)C(=O)Nc2ccccc2C1=O` (configuration not stated), which melting point is on record?
Its melting point is 259 to 261 °C.

With `CCOc1cc(Cc2cnc(N)nc2N)cc(OCC)c1C(O)CS(C)(=O)=O` (configuration not stated) as the compound, how does the melting point read?
The melting point was 205 to 206 °C.

Which melting point does the source give for `CC(C)C(=O)c1ccc2oc3ncccc3c(=O)c2c1` here?
Its melting point is 155 to 156 °C.

Which melting point does the source give for `N#Cc1cc(-c2c3ccccc3cc3sc4ccccc4c23)ccc1OCC(=O)O` here?
Its melting point is 235 to 236 °C.

Which melting point does the source give for `COC(=O)CC1CCc2ccc(OCc3ccc(C#N)cc3)cc2C1` (configuration not stated) here?
Its melting point is 120 to 122 °C.

With `CCCn1nc2c(N)nc3ccccc3c2c1CC(C)(C)NC(=O)c1cccnc1` as the compound, how does the melting point read?
Its melting point is 203 to 205 °C.

With `CCN1C(=O)C(C)(C)C(=O)N(C)c2cc(CN(CCc3ccc(C)nc3C)Cc3scnc3C)ccc21` as the compound, how does the melting point read?
The melting point was 136 to 137 °C.

For `COc1ccc2cc(C(O)=CC(C)=O)cc(F)c2c1`, which melting point is on record?
Its melting point is 107 to 108 °C.

With `O=C(N1CC2CC2(c2ccc(Cl)cc2)C1)C12CC3CC(CC(C3)C1)C2` (configuration not stated) as the compound, how does the melting point read?
Its melting point is 72 to 75 °C.

For `O=C(c1ccc2nonc2c1)N1CC2C=CC1C2` (configuration not stated), which melting point is on record?
The melting point was 106 to 108 °C.

For `Cc1oc(-c2ccco2)nc1COc1ccc(Cn2cc(CCC(=O)O)c(-c3ccc(F)cc3)n2)cc1`, which melting point is on record?
The melting point was 125 to 126 °C.

For `CCCCCCN1CCN(Cc2ccc(N)cc2)C(=O)C1=O`, which melting point is on record?
Its melting point is 99 to 102 °C.

For `C=C(C)c1ccc(-c2ccc(OC(C)=O)cc2)cc1`, which melting point is on record?
Its melting point is 131 to 132 °C.

For `C=CCS(=O)(=O)CC=C`, which melting point is on record?
Its melting point is 63 to 65 °C.

For `COC(=O)c1nn(C)c2ccccc12`, which melting point is on record?
The melting point was 78 to 79 °C.

For `CCC(CC)n1nnc2cc(C(F)(F)F)cc([N+](=O)[O-])c21`, which melting point is on record?
Its melting point is 42 to 45 °C.

Which melting point does the source give for `COc1cc2ncnc(Nc3cccc(N=[N+]=[N-])c3)c2cc1OC` here?
The melting point was 110 to 113 °C.

For `CCOC(=O)c1conc1-c1ccc(Cl)c(Cl)c1`, which melting point is on record?
The melting point was 129 to 130 °C.

With `Nc1nc(I)nc2c1ncn2C1OC(CO)C(O)C1O` (configuration not stated) as the compound, how does the melting point read?
The melting point was 141 to 144 °C.

For `CCOc1c(C)cnc(CSc2nc3cc4c(cc3[nH]2)OCO4)c1C`, which melting point is on record?
Its melting point is 184 to 185 °C.

For `COC(=O)c1cn2c(n1)COc1cc(C)c(Cl)cc1-2`, which melting point is on record?
The melting point was 242 to 246 °C.

For `Clc1ccc(C#Cc2ccc(C#Cc3cc4ccccc4s3)s2)cc1`, which melting point is on record?
Its melting point is 189 to 191 °C.

With `CS(=O)(=O)n1c(C#N)nc2cc3c(cc21)OC(F)(Cl)C(F)(Cl)O3` (configuration not stated) as the compound, how does the melting point read?
Its melting point is 123 to 126 °C.

For `N#CCN(CC#N)c1nc(Cl)nc(Cl)n1`, which melting point is on record?
Its melting point is 154 to 158 °C.
